# Article PMC8482776 (ACS Omega, 2021)
# Several values for one entry are separate records, joined by “and”; a condition that tells them apart may be missing. Equal values may be shown once.
# Key:
# C. albicans (ATCC 10231) [1] = experiment: Microdilution MIC90, strain A; format: cell-based; conditions: for MIC90 / fold greater potency than that of FLC: strain A; for MIC90: yeast, 24 h at 37 °C, triplicate; for fold greater potency than that of FLC: from MIC values
# C. albicans (ATCC 10231) [2] = experiment: Membrane permeabilization assay; format: cell-based; conditions: 8b, 8c at 1 × MIC, 2 × MIC, 4 × MIC (0.5, 1, 2 μg/mL); AMB 1 μg/mL; 3 h at 28 °C
# [3] = test system: FLC-resistant clinical C. albicans isolate (R2) biofilm; experiment: Antibiofilm MTT reduction assay, strain R2; format: cell-based; conditions: triplicate
# [4] = test system: FLC-resistant clinical Candida isolate R3 (C. albicans); experiment: PMIC90, FLC-resistant isolate R3; format: cell-based; conditions: strain R3, planktonic
# [5] = test system: Asp. fumigatus (PTCC 5009); experiment: Microdilution MIC90, strain H; format: cell-based; conditions: Aspergillus fumigatus, PTCC5009, 48 h, filamentous fungi, 48 h at 37 °C, triplicate
# C. krusei (ATCC 6258) = experiment: Microdilution MIC90, strain B; format: cell-based; conditions: for MIC90: yeast, 24 h at 37 °C, triplicate; for fold greater potency than that of FLC: from MIC values
# C. glabrata (ATCC 90030) = experiment: Microdilution MIC90, strain C; format: cell-based; conditions: yeast, 24 h at 37 °C, triplicate
# T. rubrum (PTCC 5143) = experiment: Microdilution MIC90, strain K; format: cell-based, Trichophyton rubrum; conditions: Trichophyton rubrum, PTCC5143, 48 h, filamentous fungi, 48 h at 37 °C, triplicate
# M. canis (PTCC 5069) = experiment: Microdilution MIC90, strain O; format: cell-based; conditions: Microsporum canis, PTCC5069, 48 h
# [6] = test system: FLC-resistant clinical Candida isolate R5 (C. albicans); experiment: PMIC90, FLC-resistant isolate R5; format: cell-based; conditions: strain R5, planktonic
# [7] = test system: FLC-resistant clinical Candida isolate R1 (C. albicans); experiment: PMIC90, FLC-resistant isolate R1; format: cell-based; conditions: strain R1, planktonic
# [8] = test system: human red blood cells (hRBCs); experiment: Hemolysis assay; format: cell-based; conditions: 100 μg/mL, 2 h at 37 °C
# Asp. niger (PTCC 5154) = experiment: Microdilution MIC90, strain I; format: cell-based, Aspergillus niger; conditions: Aspergillus niger, PTCC5154, 48 h, filamentous fungi, 48 h at 37 °C, triplicate
# [9] = test system: FLC-resistant clinical C. albicans isolate (R1) biofilm; experiment: Antibiofilm MTT reduction assay, strain R1; format: cell-based; conditions: triplicate
# Asp. terreus (PTCC 5023) = experiment: Microdilution MIC90, strain J; format: cell-based, Aspergillus terreus; conditions: Aspergillus terreus, PTCC5023, 48 h, filamentous fungi, 48 h at 37 °C, triplicate
# [10] = test system: Asp. nidulans (PTCC 5014); experiment: Microdilution MIC90, strain F; format: cell-based, Aspergillus nidulans; conditions: filamentous fungi, 48 h at 37 °C, triplicate
# A-431 = experiment: MTT cytotoxicity assay, A-431; format: cell-based, human; conditions: 48 h, MTT
# C. albicans (ATCC 10231) [11] = experiment: Time-kill assay; format: cell-based; conditions: 24 h period
# [12] = test system: FLC-resistant clinical Candida isolate R7 (C. glabrata); experiment: PMIC90, FLC-resistant isolate R7; format: cell-based; conditions: strain R7, planktonic
# [13] = test system: FLC-resistant clinical Candida isolates (R1–R7); experiment: PMIC, seven FLC-resistant clinical Candida isolates; format: cell-based; conditions: read-out: MIC (growth inhibition concentrations)
# [14] = test system: C. tropicalis (PTCC 5028); experiment: Microdilution MIC90, strain E; format: cell-based; conditions: 24 h
# [15] = test system: T. mentagrophytes (PTCC 5054); experiment: Microdilution MIC90, strain M; format: cell-based; conditions: Trichophyton mentagrophytes, PTCC5054, 48 h
# HDF normal cells = experiment: MTT cytotoxicity assay, HDF; format: cell-based, human; conditions: HDF normal cell line, up to 100 μg/mL, 48 h
# [16] = test system: Asp. flavus (ATCC 204304); experiment: Microdilution MIC90, strain G; format: cell-based, Aspergillus flavus; conditions: filamentous fungi, 48 h at 37 °C, triplicate
# [17] = test system: FLC-resistant clinical Candida isolate R2 (C. albicans); experiment: PMIC90, FLC-resistant isolate R2; format: cell-based; conditions: strain R2, planktonic
# C. albicans (ATCC 10231) [18] = experiment: Murine model of systemic candidiasis; format: in vivo; conditions: neutropenic mice (n = 5), 15 mg/kg oral gavage, left kidney tissue
# [19] = test system: FLC-resistant clinical Candida isolate R6 (C. albicans); experiment: PMIC90, FLC-resistant isolate R6; format: cell-based; conditions: strain R6, planktonic
# [20] = test system: T. schoenleinii (PTCC 5221); experiment: Microdilution MIC90, strain N; format: cell-based; conditions: Trichophyton schoenleinii, PTCC5221, 48 h
# [21] = test system: FLC-resistant clinical Candida isolate R4 (C. albicans); experiment: PMIC90, FLC-resistant isolate R4; format: cell-based; conditions: strain R4, planktonic
# PANC-1 = experiment: MTT cytotoxicity assay, PANC-1; format: cell-based, human; conditions: 48 h
# [22] = test system: C. parapsilosis (ATCC 22019); experiment: Microdilution MIC90, strain D; format: cell-based; conditions: 24 h
# [23] = test system: Microsporum gypseum (PTCC 5070); experiment: Microdilution MIC90, strain L; format: cell-based; conditions: filamentous fungi, 48 h at 37 °C, triplicate
# [24] = Aspergillus nidulans, PTCC5014, 48 h
# [25] = Aspergillus flavus, ATCC204304, 48 h
MIC90 [5],MIC90 (C. krusei (ATCC 6258); 24 h),MIC90 (T. rubrum (PTCC 5143)),MIC90 (C. albicans (ATCC 10231) [1]; 24 h),MIC90 (M. canis (PTCC 5069)),MIC90 (Asp. niger (PTCC 5154)),MIC90 (Asp. terreus (PTCC 5023)),"MIC90 [10, 24]",MIC90 [14],MIC90 [15],"MIC90 [16, 25]",MIC90 [20],MIC90 [22],MIC90 [23],Compound,cellular uptake of the PI dye (C. albicans (ATCC 10231) [2]),fold greater potency than that of FLC (C. krusei (ATCC 6258)),MIC90 (C. glabrata (ATCC 90030); 24 h),fold greater potency than that of FLC (C. albicans (ATCC 10231) [1]),other results
–,–,–,–,–,–,–,–,–,–,–,–,–,–,"C[C@@H]1[C@H](O)[C@@H](C)/C=C/C=C/C=C/C=C/C=C/C=C/C=C/[C@H](O[C@@H]2O[C@H](C)[C@@H](O)[C@H](N)[C@@H]2O)C[C@@H]2O[C@](O)(C[C@@H](O)C[C@@H](O)[C@H](O)CC[C@@H](O)C[C@@H](O)CC(=O)O[C@H]1C)C[C@H](O)[C@H]2C(=O)O [AMB, amphotericin B, reference compound]",increased the PI dye uptake,–,–,–,"MIC (C. albicans (ATCC 10231) [1]; Candida albicans, ATCC10231): 1 µg/mL"
16 µg/mL,0.5 µg/mL,8 µg/mL,0.5 µg/mL,16 µg/mL,16 µg/mL,16 µg/mL,2 to 4 µg/mL,16 µg/mL,32 µg/mL,8 µg/mL,8 µg/mL,8 µg/mL,2 μg·mL^–1,"Cc1ccc(NC(=O)Nc2nnc(SCC(O)(Cn3cncn3)c3ccc(F)cc3F)s2)cc1 (centres unmarked) [Compound 8e, 1-(5-((2-(2,4-Difluorophenyl)-2-hydroxy-3-(1H-1,2,4-triazol-1-yl)propyl)thio)-1,3,4-thiadiazol-2-yl)-3-(p-tolyl)urea]",–,32 fold,–,32 fold,MIC90 (C. krusei (ATCC 6258)): 1 μg·mL^–1; MIC90 (C. albicans (ATCC 10231) [1]): 1 μg·mL^–1; MIC90 [10]: 4 μg·mL^–1
16 µg/mL,2 µg/mL,4 µg/mL,2 µg/mL,8 µg/mL,16 µg/mL,32 µg/mL,8 µg/mL,16 µg/mL,16 µg/mL,2 to 4 µg/mL,8 µg/mL,0.5 µg/mL,4 μg·mL^–1,"O=C(Nc1cccc(F)c1)Nc1nnc(SCC(O)(Cn2cncn2)c2ccc(F)cc2F)s1 (centres unmarked) [Compound 8g, 1-(5-((2-(2,4-Difluorophenyl)-2-hydroxy-3-(1H-1,2,4-triazol-1-yl)propyl)thio)-1,3,4-thiadiazol-2-yl)-3-(3-fluorophenyl)urea]",–,–,1 to 16 µg/mL,–,MIC90 (C. glabrata (ATCC 90030)): 1 μg·mL^–1; MIC90 [16]: 4 μg·mL^–1

Compound,MIC90 [5],MIC90 (C. krusei (ATCC 6258); 24 h),MIC90 (T. rubrum (PTCC 5143)),MIC90 (C. albicans (ATCC 10231) [1]; 24 h),MIC90 (M. canis (PTCC 5069)),MIC90 (Asp. niger (PTCC 5154)),MIC90 (Asp. terreus (PTCC 5023)),"MIC90 [10, 24]",MIC90 [14],MIC90 [15],"MIC90 [16, 25]",MIC90 [20],MIC90 [22],MIC90 [23],cellular uptake of the PI dye (C. albicans (ATCC 10231) [2]),fold greater potency than that of FLC (C. krusei (ATCC 6258)),MIC90 (C. glabrata (ATCC 90030); 24 h),fold greater potency than that of FLC (C. albicans (ATCC 10231) [1]),other results
"O=C(Nc1ccc(F)cc1)Nc1nnc(SCC(O)(Cn2cncn2)c2ccc(F)cc2F)s1 (centres unmarked) [Compound 8c, 1-(5-((2-(2,4-Difluorophenyl)-2-hydroxy-3-(1H-1,2,4-triazol-1-yl)propyl)thio)-1,3,4-thiadiazol-2-yl)-3-(4-fluorophenyl)urea]",0.5 µg/mL,0.5 µg/mL,4 µg/mL,0.5 µg/mL,16 µg/mL,0.5 µg/mL,0.5 µg/mL,16 µg/mL,0.5 µg/mL,2 µg/mL,16 µg/mL,16 µg/mL,2 µg/mL,–,"none of our compounds 8b and 8c (at 1 × MIC, 2 × MIC, or 4 × MIC) induced the cellular uptake of the PI dye",32 fold,0.5 µg/mL,32 fold,"SMIC90 (sessile minimum inhibitory concentration that reduced the metabolic activity of biofilms by 90%) [3]: 1 µg/mL; PMIC90 [4]: 2 µg/mL; PMIC90 [6]: 2 µg/mL; PMIC90 [7]: 0.5 µg/mL; hemolysis (in words) [8]: limited hemolysis; SMIC90 (sessile minimum inhibitory concentration that reduced the metabolic activity of biofilms by 90%) [9]: 1 µg/mL; toxicity (in words) (A-431; A-431, 100 μg/mL): some toxicity levels; toxicity (in words) (A-431; A-431, up to 60 μg/mL): no toxicity; time-kill effect at 4 × MIC (C. albicans (ATCC 10231) [11]; at 4 × MIC (2 μg/mL for 8b, 8c; 64 μg/mL for FLC)): high fungicidal effect; time-kill effect at MIC (C. albicans (ATCC 10231) [11]; at MIC (0.5 μg/mL)): fungistatic effect; PMIC90 [12]: 2 µg/mL; MIC [13]: 0.25 to 2 µg/mL; toxicity (in words) (HDF normal cells): none of the active compounds displayed toxicity; PMIC90 [17]: 1 µg/mL; kidney fungal burden, CFU/g (mean ± SD) (C. albicans (ATCC 10231) [18]): 438 CFU/g and 438 ± 54.8 ^b CFU/g; PMIC90 [19]: 2 µg/mL; PMIC90 [21]: 2 µg/mL; cell survival (PANC-1; PANC-1, 100 μg/mL): > 40%; toxicity (in words) (PANC-1; PANC-1, at 30 and 60 μg/mL): no toxicity"
